One test concerns RAW264.7 cells. As to the kind of experiment: In vitro immunomodulatory activity: cytokine secretion by RAW264.7 cells (ELISA). In kind it is cell-based, murine. The following applies: 10 μg/mL, 12 h. Here is the method: RAW264.7 cells were seeded at a density of 1.0 × 10^6 cell/mL and treated with (10 μg/mL) or without peptides in each well of a 6-well plate for 12 h at 37°C in a humidified incubator with 5% CO2. After treatment, TNF-α, IL-6 and IL-1β secretion in the cell supernatants was assessed using ELISA kits according to the manufacturer’s instructions.

The test system of test [1] is CTX-immunosuppressed murine model. As to the kind of experiment: Body weight and immune organ indices in CTX-immunosuppressed mice. In kind it is in vivo, BALB/c mice. The following applies: CTX 80 mg/kg i.p. 3 days, peptide 10 mg/kg i.p. days 4-10, n = 12. Here is the method: BALB/c mice (female, 6–8 weeks; Charles River, Beijing, China) used in this study were maintained in a specific-pathogen-free facility (55 ± 10% humidity and 22 ± 1°C) during the experiments. These experiments were conducted with approval from the Institutional Animal Care and Use Committee of China Agricultural University (certificate of the Beijing Laboratory Animal employee, ID: 18086).
(§1) After a 7-day adaptation period, the mice were randomly divided into five groups (n = 12 in each group): (1) control group: physiological saline was injected intraperitoneally once daily; (2) cyclophosphamide (CTX) group: CTX (80 mg/kg mouse weight; Sigma-Aldrich, St. Louis, MO, United States) was injected intraperitoneally once daily for the first 3 days. […] From days 4 to 10, peptide (10 mg/kg mouse weight) was injected intraperitoneally into mice once daily. Twenty-four hours after the last drug administration, all the mice were weighed and then euthanized, and their tissues and blood were collected for further study. The body weight index was calculated according to the formula:
Index(%)=finalbodyweight-initalbodyweight/initialbodyweight×100
The thymus and spleen indices were measured by the following formula:
Index(mg/g)=weightofthymusorspleen/bodyweight

The test system of test [2] is T lymphocyte subpopulations (CD4 +, CD8 +), mouse peripheral blood. As to the kind of experiment: Peripheral blood T lymphocyte subpopulations by flow cytometry. In kind it is in vivo, BALB/c mice. The following applies: CTX 80 mg/kg i.p. 3 days; peptide 10 mg/kg i.p. days 4-10; three biological replicates. Here is the method:
as §1, with “formula: […]” for “formula:”
Erythrocytes were aseptically obtained from the different groups of mouse peripheral blood and lysed with RBC lysis buffer. The remaining cells were washed with PBS and resuspended in PBS. The cells were combined with peridinin-chlorophyll-protein complex (PerCP)-conjugated anti-mouse CD3 +, allophycocyanin (APC)-conjugated anti-mouse CD4 +, and fluorescein isothiocyanate (FITC)-conjugated anti-mouse CD8 + (BD Pharmingen, United States) for 30 min at 4°C. The T lymphocyte subpopulations were analyzed by flow cytometry.
On the technique in general: Flow cytometry measures light scatter and fluorescence of single cells or particles in a stream.

Test [3] concerns MHC class II, mouse PBMCs. The test is described as follows: DC maturation: MHC-II expression by flow cytometry. The following applies: CTX 80 mg/kg i.p. 3 days; peptide 10 mg/kg i.p. days 4-10; three biological replicates. In kind it is in vivo, BALB/c mice. The procedure:
as §1, with “formula: […]” for “formula:”
Mouse peripheral blood mononuclear cells (PBMCs) were obtained from the different groups of mice through Ficoll density gradient centrifugation. The cells were resuspended in PBS with 5% FBS and incubated with 10% (v/v) normal goat serum for 15 min at 4°C. The cells were combined with FITC-conjugated antibodies specific for MHC class II (MHC-II; BD Pharmingen, United States). The surface expression of MHC-II was determined by flow cytometry.

Test [4] relates to serum TNF-α, IL-6, and IL-1β. The test is described as follows: Serum cytokines by ELISA in CTX-treated mice. In kind it is in vivo, BALB/c mice. Particulars: CTX 80 mg/kg i.p. 3 days, peptide 10 mg/kg i.p. days 4-10, three biological replicates. The procedure:
as §1, with “formula: […]” for “formula:”
(§2) Serum was collected from blood and then assayed by ELISA kits according to the protocol supplied by the manufacturer (eBioscience, San Diego, United States) to determine the secretion of IgG, IgA, IgM, TNF-α, IL-6, and IL-1β.
(ELISA stands for enzyme-linked immunosorbent assay.)

Another test has as its system serum IgA, IgG, and IgM. The test is described as follows: Serum immunoglobulins by ELISA in CTX-treated mice. The class given is in vivo, BALB/c mice. The following applies: CTX 80 mg/kg i.p. 3 days, peptide 10 mg/kg i.p. days 4-10, three biological replicates. The procedure: as §1, with “formula: […]” for “formula:”
as §2

Test [5] concerns TLR2, RAW264.7 cells. The test is described as follows: TLR2 blocking experiment (anti-mouse TLR2 C9A12, then LTPa). The following applies: LTPa 10 μg/mL, 24 h; with or without TLR2 mAb (C9A12) 1 h before; ELISA. In kind it is cell-based. The procedure: For TLR2 blocking experiments, RAW264.7 cells were cultured in 24-well plates overnight at 37°C. The mouse IgG2a isotype control antibody or anti-mouse TLR2 (C9A12; InvivoGen, San Diego, CA, United States) was added to the cell cultures 1 h before being treated with LTPa for 24 h at 37°C. Then, the levels of TNF-α, IL-6, and IL-1β in the culture supernatant were analyzed.

The next test has as its system TLR2. The test is described as follows: Surface plasmon resonance, immobilized TLR2. In kind it is binding. Particulars: Biacore X100, CM5 chip, PBS containing 0.05% Tween 20; 0, 1.25, 2.5, 5, and 10 mM. Here is the method: Surface plasmon resonance (SPR) experiments were carried out using a Biacore X100 instrument (GE Healthcare, Pittsburgh, PA, United States) by standard amine coupling. TLR2 (R&D Systems, Minneapolis, MN, United States) was amine-coupled to a Biacore CM5 sensor chip (Bio-Rad). The peptide was diluted to varying concentrations (0, 1.25, 2.5, 5, and 10 mM) in running buffer (PBS containing 0.05% Tween 20) and run sequentially over immobilized TLR2. Binding curves were processed for the initial injection alignment and baseline, and a reference-subtracted sensorgram was globally fitted to the curves to describe a homogeneous 1:1 model. Data analysis was conducted using ProteOn manager software (version 2.0). Data from the protein surfaces were grouped together to fit the association kinetic rate constant (Ka) and the dissociation rate constant (Kd). The equilibrium dissociation constant (KD) for the peptide-TLR2 interaction was calculated as follows: […]
On the technique in general: In SPR one partner is held on a chip, and binding of the other changes the refractive index at the surface.

Test [6] relates to TLR2, RAW264.7 cells. As to the kind of experiment: Cell surface TLR2 cluster formation by confocal laser-scanning microscopy. The class given is cell-based, mouse. Particulars: LTPa 10 μg/mL, 1 h, 37°C; clusters = fluorescence > 40 arbitrary units; three independent experiments. The procedure:
RAW264.7 cells were treated with or without 10 μg/mL LTPa for 1 h at 37°C. The cells were then incubated (30 min, on ice) with anti-mouse monoclonal antibody TLR2 or isotype control (IgG) (eBioscience) before washing with PBS. Then, the cells were stained with a FITC–conjugated anti-mouse IgG antibody for 30 min on ice (Jackson Laboratories). After washing with PBS and fixing with paraformaldehyde, the cell nuclei were stained with DAPI (1:500 dilution in PBS) (Sigma-Aldrich). The cells were then imaged with the Leica TCS SP5 confocal system (Leica Microsystems Ltd.). LAS AF software was used to process the images and quantify the fluorescence. In addition, to generate a fluorescence histogram profile, a line was drawn along the cell surface. Fluorescence intensities higher than 40 arbitrary units (isotype control staining) were considered clusters of TLR2 molecules.

The mark [7] stands for this setting: 37°C, ELISA, three independent experiments.

Entries after “also recorded” stand apart in the source; their conditions may differ.

Turning to “IGKEFKRIVQRIKDFLRNLVPRTERKDVT [LTPa, hybrid peptide combining LL-37a and TP5]”, in the test on RAW264.7 cells (setting [7]), the IL-1β secretion result is reported as “remarkable increases”, the IL-6 secretion entry is listed as “remarkable increases” and the TNF-α secretion entry was “remarkable increases”. In the test with RAW264.7 cells (vs the other peptides tested), the “secretion of TNF-α, IL-6, and IL-1β (comparison between peptides)” value is “significantly increased the secretion of TNF-α, IL-6, and IL-1β in comparison with the other peptides tested”. In addition, in [1], the spleen index entry was “significantly higher than those in the LL-37-treated and TP5-treated groups”; the thymus index result is “significantly higher than those in the LL-37-treated and TP5-treated groups”. Further, the bodyweight entry in test [1] (CTX group vs control) was “improved bodyweight rapidly; also recorded: significantly higher than that in the parental peptide (LL-37 and TP5)-treated groups”. In addition, in [2], the “proportions of CD4 + and CD8 + T lymphocytes” value is “significantly higher than that in the LL-37-treated group and similar to that in the TP5-treated group”. Besides, the “expression of MHC-II” value in test [3] is “increased by LTPa treatment; also recorded: significantly higher than that in the LL-37-treated and TP5-treated groups”. Further, in [4], the “serum IL-1β level” value is “higher than those in the TP5- or LL-37-treated groups; also recorded: efficiently reversed the declines”, the “serum IL-6 level” value is “higher than those in the TP5- or LL-37-treated groups; also recorded: efficiently reversed the declines” and the “serum TNF-α level” value is on record as “higher than those in the TP5- or LL-37-treated groups; also recorded: efficiently reversed the declines”. In the test on serum IgA, IgG, and IgM, the “serum IgA level” value was “significantly higher total serum IgA, IgG, and IgM levels than mice in the TP5- or LL-37-treated groups”; the “serum IgG level” value was “significantly higher total serum IgA, IgG, and IgM levels than mice in the TP5- or LL-37-treated groups”; the “serum IgM level” value was “significantly higher total serum IgA, IgG, and IgM levels than mice in the TP5- or LL-37-treated groups”. Moreover, the “TNF-α, IL-6, and IL-1β production” value in the test on TLR2, RAW264.7 cells [5] is “significantly caused increase levels of TNF-α, IL-6, and IL-1β”. For the same sequence, the “binding to TLR2 (SPR)” value in the test on TLR2 is reported as “could effectively bind to the TLR2”. The “TLR2 clusters per micrometer on the cell surface” value with TLR2, RAW264.7 cells [6] was “significantly increased the number of major TLR2 clusters per micrometer on the cell surface”.
